Key:
[1] = tested on: Sinapis alba, Stellaria media, Chrysanthemum segetum, and Lolium multiflorum; test: Pre-emergence effect on weeds (greenhouse pot test, visual scoring); type: in vivo; conditions: applied pre-emergence at 0.3 kg to 0.005 kg of active ingredient per hectare; scored visually after 3 to 4 weeks vs untreated controls
Description: Seeds or rhizome pieces of monocotyledonous and dicotyledonous weed plants are placed in sandy loam soil in plastic pots and covered with soil. The compounds of the formula (I) or salts thereof according to the invention which have been formulated in the form of wettable powders or emulsion concentrates are then applied to the surface of the soil cover in the form of aqueous suspensions or emulsions at an application rate of […] of water/ha (converted), in various dosages.
After the treatment, the pots are placed in a greenhouse and kept under good growth conditions for the weeds. After the test plants have emerged after a period of 3 to 4 weeks, the damage to the plants or the negative effect on the emergence is scored visually by comparison with untreated controls. As shown by the test results, the compounds according to the invention have a good herbicidal pre-emergence activity against a broad spectrum of grass weeds and broad-leaved weeds.

[2] = tested on: Sinapis alba, Stellaria media, Chrysanthemum segetum, and Lolium multiflorum; test: Post-emergence effect on weeds (greenhouse pot test, visual scoring); type: in vivo; conditions: applied post-emergence (three-leaf stage) at 0.3 kg to 0.005 kg of active ingredient per hectare; scored visually after about 3 to 4 weeks vs untreated controls
Method: Seeds or rhizome pieces of monocotyledonous and dicotyledonous weeds are placed in sandy loam soil in plastic pots, covered with soil and grown in a greenhouse under good growth conditions. Three weeks after sowing, the test plants are treated in the three-leaf stage. The compounds of the formula (I) or salts thereof according to the invention which have been formulated as wettable powders or as emulsion concentrates are sprayed in various dosages onto the green parts of the plants at an application rate of 600 to 800 l of water/ha (converted). After the test plants have remained in the greenhouse for about 3 to 4 weeks under ideal growth conditions, the effect of the preparations is scored visually by comparison with untreated controls. The agents according to the invention also have a good herbicidal post-emergence activity against a broad range of economically important grass weeds and broad-leaved weeds.

SMILES	herbicidal activity, pre-emergence [1]	herbicidal activity, post-emergence [2]	melting point
COc1cc(OC)nc(NC(=O)NS(=O)(=O)c2ncccc2N=C(C(C)C)N(C)C)n1 [Example 4-17]	very good herbicidal activity	very good herbicidal activity	
COc1cc(OC)nc(NC(=O)NS(=O)(=O)c2ccccc2N=CN(C)C)n1 [Example 1-1, N-[(4,6-dimethoxypyrimidin-2-yl)aminocarbonyl]-2-(2-dimethylamino-1-azaethenyl)benzenesulfonamide]	very good herbicidal activity	very good herbicidal activity	209 to 210 °C (dec.)
COC(=O)c1ccc(N=CN(C)C)cc1S(=O)(=O)NC(=O)Nc1nc(OC)cc(OC)n1 [Example 2-10, methyl 2-[[[[(4,6-dimethoxypyrimidin-2-yl)amino]carbonyl]amino]sulfonyl]-4-(2-dimethylamino-1-azaethenyl)-benzoate]	very good herbicidal activity	very good herbicidal activity	73 to 75 °C
CCC(=Nc1ccc(C(=O)OC)c(S(=O)(=O)NC(=O)Nc2nc(OC)cc(OC)n2)c1)N(C)C [Example 2-24]	very good herbicidal activity	very good herbicidal activity	
CCN(C=Nc1ccccc1S(=O)(=O)NC(=O)Nc1nc(OC)cc(OC)n1)CC [Example 1-5]	very good herbicidal activity	very good herbicidal activity	
COc1cc(OC)nc(NC(=O)[N-]S(=O)(=O)c2c(N=CN(C)C)c(C)nn2C)n1.[Na+] [Example 10-2]	very good herbicidal activity	very good herbicidal activity	
CCN(C=Nc1ccc(C(=O)OC)c(S(=O)(=O)[N-]C(=O)Nc2nc(OC)cc(OC)n2)c1)CC.[Na+] [Example 2-49]	very good herbicidal activity	very good herbicidal activity	
COc1cc(OC)nc(NC(=O)[N-]S(=O)(=O)c2sccc2N=C(C)N(C)C)n1.[Na+] [Example 9-2]	very good herbicidal activity	very good herbicidal activity	
COc1cc(OC)nc(NC(=O)NS(=O)(=O)c2cc(N=CN(C)C)ccc2C(=O)N(C)C)n1 [Example 2-15, N,N-dimethyl-2-[[[[(4,6-dimethoxypyrimidin-2-yl)-amino]carbonyl]amino]sulfonyl]-4-(2-dimethylamino-1-azaethenyl)-benzamide]	very good herbicidal activity	very good herbicidal activity	140 to 141 °C (dec.)
COc1cc(OC)nc(NC(=O)[N-]S(=O)(=O)c2ccccc2N=CN(C)C)n1.[Na+] [Example 1-14]	very good herbicidal activity	very good herbicidal activity	
COc1cc(OC)nc(NC(=O)[N-]S(=O)(=O)c2sccc2N=C(C(C)C)N(C)C)n1.[Na+] [Example 9-4]	very good herbicidal activity	very good herbicidal activity	
COC(=O)c1ccc(N=CN2CCCCC2)cc1S(=O)(=O)NC(=O)Nc1nc(OC)cc(OC)n1 [Example 2-37]	very good herbicidal activity	very good herbicidal activity	
COc1cc(OC)nc(NC(=O)NS(=O)(=O)c2sccc2N=CN(C)C)n1 [Example 9-5]	very good herbicidal activity	very good herbicidal activity	
CCN(C=Nc1ccc(C(=O)OC)c(S(=O)(=O)NC(=O)Nc2nc(OC)cc(OC)n2)c1)CC [Example 2-48]	very good herbicidal activity	very good herbicidal activity	
CCS(=O)(=O)c1ccc(N=CN(C)C)cc1S(=O)(=O)NC(=O)Nc1nc(OC)cc(OC)n1 [Example 2-22]	very good herbicidal activity	very good herbicidal activity	
COc1cc(OC)nc(NC(=O)NS(=O)(=O)c2ncccc2N=C(C)N(C)C)n1 [Example 4-18]	very good herbicidal activity	very good herbicidal activity	
COc1cc(OC)nc(NC(=O)[N-]S(=O)(=O)c2sccc2N=CN(C)C)n1.[Na+] [Example 9-6]	very good herbicidal activity	very good herbicidal activity	
COC(=O)c1ccc(N=CN(C)C)cc1S(=O)(=O)NC(=O)Nc1nc(Cl)cc(OC)n1 [Example 2-39]	very good herbicidal activity	very good herbicidal activity	
COc1cc(OC)nc(NC(=O)NS(=O)(=O)c2c(N=CN(C)C)c(C)nn2C)n1 [Example 10-1]	very good herbicidal activity	very good herbicidal activity	
COc1cc(OC)nc(NC(=O)NS(=O)(=O)c2sccc2N=C(C(C)C)N(C)C)n1 [Example 9-3]	very good herbicidal activity	very good herbicidal activity	
COC(=O)c1ccc(N=C(C(C)C)N(C)C)cc1S(=O)(=O)NC(=O)Nc1nc(OC)cc(OC)n1 [Example 2-26]	very good herbicidal activity	very good herbicidal activity	
COC(=O)c1ccc(N=CN(C)C)cc1S(=O)(=O)NC(=O)Nc1nc(C)nc(OC)n1 [Example 2-41]	very good herbicidal activity	very good herbicidal activity	
CCC(=Nc1cccnc1S(=O)(=O)NC(=O)Nc1nc(OC)cc(OC)n1)N(C)C [Example 4-19]	very good herbicidal activity	very good herbicidal activity	
COc1cc(OC)nc(NC(=O)NS(=O)(=O)c2sccc2N=C(C)N(C)C)n1 [Example 9-1]	very good herbicidal activity	very good herbicidal activity	
COc1cc(OC)nc(NC(=O)NS(=O)(=O)c2ncccc2N=CN(C)C)n1 [Example 4-2]		very good herbicidal activity	
COC(=O)c1ccc(N=CN2CCCC2)cc1S(=O)(=O)NC(=O)Nc1nc(OC)cc(OC)n1 [Example 2-36]	very good herbicidal activity	very good herbicidal activity	
COc1cc(OC)nc(NC(=O)NS(=O)(=O)c2cccc(N=CN(C)C)c2)n1 [Example 2-47]	very good herbicidal activity	very good herbicidal activity	
COc1cc(OC)nc(NC(=O)NS(=O)(=O)c2cc(N=CN(C)C)ccc2S(C)(=O)=O)n1 [Example 2-21]	very good herbicidal activity	very good herbicidal activity	
CCN(C=Nc1ccc(S(=O)(=O)CC)c(S(=O)(=O)NC(=O)Nc2nc(OC)cc(OC)n2)c1)CC [Example 2-50]	very good herbicidal activity	very good herbicidal activity	
